# Values joined by “and” are separate entries in the source; they are usually repeats but may differ in a detail not shown here. Equal entries are not always repeated. Where two headings read alike, the source gives them in different places.
# Tests used:
# [1] = amide bond
# CFTR = CFTR (Homo sapiens, UniProt P13569); test: Membrane Potential Dye, Enteroid Assay B; assay type: cell-based; details: for EC50: read-out: Ent. B EC50
# Method in brief: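 Human intestinal enteroids seeded at 5000 cells/well, treated with compound 18-24 h at 37 °C, then loaded 25 min with methyl oxonol membrane-potential dye plus CaCC blockers. Chloride transport started in chloride-free buffer with 10 μM forskolin, 100 μM IBMX and 300 nM Compound III, read 15 min; expressed as % of triple-combination control.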
# Sequence of CFTR (P13569 with tags, fused parts or gaps DEL508-508): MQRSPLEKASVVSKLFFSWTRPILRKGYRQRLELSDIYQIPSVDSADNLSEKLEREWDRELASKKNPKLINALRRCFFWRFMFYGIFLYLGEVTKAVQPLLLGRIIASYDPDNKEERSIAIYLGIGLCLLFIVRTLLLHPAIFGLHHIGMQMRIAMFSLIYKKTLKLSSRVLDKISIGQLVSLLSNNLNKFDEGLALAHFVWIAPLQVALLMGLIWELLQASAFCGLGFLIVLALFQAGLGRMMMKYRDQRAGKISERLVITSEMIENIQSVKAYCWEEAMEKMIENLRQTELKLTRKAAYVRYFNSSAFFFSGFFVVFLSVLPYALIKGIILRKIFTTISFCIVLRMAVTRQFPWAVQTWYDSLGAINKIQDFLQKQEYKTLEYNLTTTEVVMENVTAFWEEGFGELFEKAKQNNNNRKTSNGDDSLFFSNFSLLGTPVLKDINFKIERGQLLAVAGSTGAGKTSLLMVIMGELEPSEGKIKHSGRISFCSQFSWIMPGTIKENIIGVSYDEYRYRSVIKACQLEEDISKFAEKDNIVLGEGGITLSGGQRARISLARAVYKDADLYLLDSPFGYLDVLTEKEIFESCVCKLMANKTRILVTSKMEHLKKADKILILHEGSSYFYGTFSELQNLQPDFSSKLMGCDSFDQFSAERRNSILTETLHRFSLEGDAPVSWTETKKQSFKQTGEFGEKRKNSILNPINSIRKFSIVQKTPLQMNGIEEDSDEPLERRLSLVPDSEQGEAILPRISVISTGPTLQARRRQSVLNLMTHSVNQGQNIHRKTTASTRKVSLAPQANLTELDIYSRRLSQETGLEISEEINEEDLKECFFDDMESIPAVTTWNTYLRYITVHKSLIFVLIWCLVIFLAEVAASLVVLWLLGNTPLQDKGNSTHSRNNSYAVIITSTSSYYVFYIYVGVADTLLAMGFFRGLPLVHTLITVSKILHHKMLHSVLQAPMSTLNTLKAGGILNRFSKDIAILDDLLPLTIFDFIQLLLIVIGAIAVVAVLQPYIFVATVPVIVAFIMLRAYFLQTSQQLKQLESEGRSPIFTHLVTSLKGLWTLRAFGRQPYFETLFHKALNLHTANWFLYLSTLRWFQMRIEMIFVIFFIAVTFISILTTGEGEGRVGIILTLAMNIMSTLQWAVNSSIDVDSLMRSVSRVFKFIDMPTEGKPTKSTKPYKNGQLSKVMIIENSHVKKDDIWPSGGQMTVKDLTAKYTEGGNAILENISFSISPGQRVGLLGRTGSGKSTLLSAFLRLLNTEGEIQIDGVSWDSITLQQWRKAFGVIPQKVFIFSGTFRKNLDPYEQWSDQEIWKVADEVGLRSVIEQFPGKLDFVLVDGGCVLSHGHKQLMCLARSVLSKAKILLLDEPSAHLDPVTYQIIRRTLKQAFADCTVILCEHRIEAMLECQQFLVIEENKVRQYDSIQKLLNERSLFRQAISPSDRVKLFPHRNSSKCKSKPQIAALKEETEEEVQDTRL
compound,measurement,setting,value
Cc1ccc2cc1Oc1cc(-c3c(C)cccc3C)nc(n1)NS(=O)(=O)c1cccc(c1)NC2=O,"ring closure, yield after HPLC","[1]; from Cc1ccc(C(=O)O)cc1Oc1cc(-c2c(C)cccc2C)nc(NS(=O)(=O)c2cccc(N)c2)n1, 14-membered ring, HATU/DIEA, DMF, 78.0 mM, 25.0 °C, 0.083 h, 3 steps",26%
"Cc1cccc(C)c1-c1nc2nc(c1C)OC[C@@H](C)NC(=O)c1cccc(c1)S(=O)(=O)N2 [Compound 117, (11R)-6-(2,6-Dimethylphenyl)-7,11-dimethyl-9-oxa-2λ^6-thia-3,5,12,19-tetraazatricyclo[12.3.1.14,8]nonadeca-1(18),4,6,8(19),14,16-hexaene-2,2,13-trione]",Ent. B Max Activity,CFTR,++ (++ is 30-60%)
same,EC50,CFTR,1 to 3 µM
same,"ring closure, yield after HPLC","[1]; from Cc1cccc(C)c1-c1nc(NS(=O)(=O)c2cccc(C(=O)O)c2)nc(OC[C@@H](C)N)c1C, 13-membered ring, HATU/DIEA, DMF, 49.3 mM, 1.0 h",18%
Cc1cccc(COC(C)C)c1-c1nc2nc(c1C)OC[C@@H](CC(C)(C)C)N(Cc1ncc(N3CCC(C)(C)C3)cn1)C(=O)c1cccc(c1)S(=O)(=O)N2,"ring closure, yield after HPLC","[1]; from Cc1cccc(COC(C)C)c1-c1nc(NS(=O)(=O)c2cccc(C(=O)O)c2)nc(OC[C@@H](CC(C)(C)C)NCc2ncc(N3CCC(C)(C)C3)cn2)c1C, 13-membered ring, CDMT/NMM, DMF, 11.0 mM, 5.0 h, 2 steps",13%
Cc1cccc(CC(C)(C)C)c1-c1nc2nc(c1C)OC[C@@H](CC(C)(C)C)N(Cc1ncc(N3CCC(C)(C)C3)cn1)C(=O)c1cccc(c1)S(=O)(=O)N2,"ring closure, yield after HPLC","[1]; from Cc1cccc(CC(C)(C)C)c1-c1nc(NS(=O)(=O)c2cccc(C(=O)O)c2)nc(OC[C@@H](CC(C)(C)C)NCc2ncc(N3CCC(C)(C)C3)cn2)c1C, 13-membered ring, CDMT/NMM, DMF, 11.0 mM, 16.0 h, 2 steps",11%
same,"ring closure, yield after HPLC","[1]; from Cc1cccc(CC(C)(C)C)c1-c1nc(NS(=O)(=O)c2cccc(C(=O)O)c2)nc(OC[C@@H](CC(C)(C)C)NCc2ncc(N3CCC(C)(C)C3)cn2)c1C, 13-membered ring, CDMT/NMM, DMF, 12.0 mM, 16.0 h, 2 steps",7%
Cc1cccc(CC2CCOCC2)c1-c1nc2nc(c1C)OC[C@@H](CC(C)(C)C)N(Cc1ncc(N3CCOCC3)cn1)C(=O)c1cccc(c1)S(=O)(=O)N2,"ring closure, yield after HPLC","[1]; from Cc1cccc(CC2CCOCC2)c1-c1nc(NS(=O)(=O)c2cccc(C(=O)O)c2)nc(OC[C@@H](CC(C)(C)C)NCc2ncc(N3CCOCC3)cn2)c1C, 13-membered ring, CDMT/NMM, DMF, 41.0 mM, 19.0 h",25%
"Cc1cccc(C)c1-c1nc2nc(c1C)O[C@H](c1ccc(C(C)(C)C)cc1)[C@@H](C)NC(=O)c1cccc(c1)S(=O)(=O)N2 [Compound 172, (10R,11R)-10-(4-tert-Butylphenyl)-6-(2,6-dimethylphenyl)-7,11-dimethyl-2,2-dioxo-9-oxa-2λ^6-thia-3,5,12,19-tetrazatricyclo[12.3.1.14,8]nonadeca-1(18),4(19),5,7,14,16-hexaen-13-one]",Ent. B Max Activity,CFTR,+++ (+++ is >60%)
same,EC50,CFTR,< 1 µM
same,"ring closure, yield after HPLC","[1]; 13-membered ring, NaOtBu then HATU, THF/DMF, 77.0 mM, 2 steps",8%
"(5M,11R)-11-(2,2-dimethylpropyl)-7-methyl-6-[2-methyl-6-(3-methylbutyl)phenyl]-12-{[5-(propan-2-yloxy)pyrimidin-2-yl]methyl}-9-oxa-2λ^6-thia-3,5,12,19-tetraazatricyclo[12.3.1.14,8] nonadeca-1(17),4(19),5,7,14(18),15-hexaene-2,2,13-trione","ring closure, yield after HPLC","[1]; 13-membered ring, CDMT/NMM, DMF, 47.4 mM",40%
"Cc1cccc(C)c1-c1nc2nc(c1C)OC[C@@H](C)N(C1CC3(CC(NC(=O)OC(C)(C)C)C3)C1)C(=O)c1cccc(c1)S(=O)(=O)N2 (stereo partly drawn) [Compound 116, tert-Butyl N-{6-[(11R)-6-(2,6-dimethylphenyl)-7,11-dimethyl-2,2,13-trioxo-9-oxa-2λ^6-thia-3,5,12,19-tetraazatricyclo[12.3.1.14,8]nonadeca-1(18),4,6,8(19),14,16-hexaen-12-yl]spiro[3.3]heptan-2-yl}carbamate]",Ent. B Max Activity,CFTR,++ (++ is 30-60%)
same,EC50,CFTR,< 1 µM
same,"ring closure, yield after HPLC","[1]; from Cc1cccc(C)c1-c1nc(NS(=O)(=O)c2cccc(C(=O)O)c2)nc(OC[C@@H](C)NC2CC3(CC(NC(=O)OC(C)(C)C)C3)C2)c1C, 13-membered ring, HATU/TEA, DMF, 26.7 mM, 1.0 h",57%
"(5P,11R)-11-(2,2-dimethylpropyl)-7-methyl-6-[2-methyl-6-(3-methylbutyl)phenyl]-12-{[5-(propan-2-yloxy)pyrimidin-2-yl]methyl}-9-oxa-2λ^6-thia-3,5,12,19-tetraazatricyclo[12.3.1.14,8]nonadeca-1(17),4(19),5,7,14(18),15-hexaene-2,2,13-trione","ring closure, yield after HPLC","[1]; 13-membered ring, CDMT/NMM, DMF, 33.8 mM",45%
Cc1cccc(C)c1-c1nc2nc(c1C)OC[C@@H](CC(C)(C)C)N(C1CC3(CC(NC(=O)OC(C)(C)C)C3)C1)C(=O)c1cccc(c1)S(=O)(=O)N2 (stereo partly shown),"ring closure, yield after HPLC","[1]; from Cc1cccc(C)c1-c1nc(NS(=O)(=O)c2cccc(C(=O)O)c2)nc(OC[C@@H](CC(C)(C)C)NC2CC3(CC(NC(=O)OC(C)(C)C)C3)C2)c1C, 13-membered ring, HATU/DIEA, DMF, 14.3 mM, 72.0 h",62%
"Cc1cccc(C)c1-c1nc2nc(c1C)OC[C@@H](CC(C)(C)C(F)(F)F)N(C1CC3(CCN(C(=O)OC(C)(C)C)CC3)C1)C(=O)c1cccc(c1)S(=O)(=O)N2 [Compound 156, tert-Butyl 2-[(11R)-6-(2,6-dimethylphenyl)-7-methyl-2,2,13-trioxo-11-(3,3,3-trifluoro-2,2-dimethylpropyl)-9-oxa-2λ^6-thia-3,5,12,19-tetraazatricyclo[12.3.1.14,8]nonadeca-1(17),4(19),5,7,14(18),15-hexaen-12-yl]-7-azaspiro[3.5]nonane-7-carboxylate]",Ent. B Max Activity,CFTR,+++ (+++ is >60%)
same,EC50,CFTR,< 1 µM
same,"ring closure, yield after HPLC","[1]; from Cc1cccc(C)c1-c1nc(NS(=O)(=O)c2cccc(C(=O)O)c2)nc(OC[C@@H](CC(C)(C)C(F)(F)F)NC2CC3(CCN(C(=O)OC(C)(C)C)CC3)C2)c1C, 13-membered ring, HATU/DIEA, DMF, 23.2 mM, 29.0 h",22%
Cc1cccc(C)c1-c1nc2nc(c1C)OC[C@@H](CC(C)(C)C)N(C1CC3(C1)CC(C(C)(C)O)C3)C(=O)c1cccc(c1)S(=O)(=O)N2 (stereo partly shown),"ring closure, yield after HPLC","[1]; from Cc1cccc(C)c1-c1nc(NS(=O)(=O)c2cccc(C(=O)O)c2)nc(OC[C@@H](CC(C)(C)C)NC2CC3(C2)CC(C(C)(C)O)C3)c1C, 13-membered ring, HATU/DIEA, DMF, 28.7 mM, 16.0 h",6%
COc1c2nc(nc1-c1c(C)cccc1C)NS(=O)(=O)c1cccc(c1)C(=O)N(C1CC3(CCN(C(=O)OC(C)(C)C)CC3)C1)[C@H](CC(C)C)CO2,"ring closure, yield after HPLC","[1]; 13-membered ring, HATU/DIEA, DMF",22%
"Cc1cccc(C)c1-c1nc2nc(c1C)OC[C@@H](CC(C)C)N(C1CC(OC(C)C)C1)C(=O)c1cccc(c1)S(=O)(=O)N2 (single isomer, unassigned; diastereomer 1)","ring closure, yield after HPLC","[1]; from Cc1cccc(C)c1-c1nc(NS(=O)(=O)c2cccc(C(=O)O)c2)nc(OC[C@@H](CC(C)C)NC2CC(OC(C)C)C2)c1C, 13-membered ring, HATU/DIEA, DMF, 25.0 °C, 2 steps",9%
"CCc1c2nc(nc1-c1c(C)cccc1C)NS(=O)(=O)c1cccc(c1)C(=O)N(C1CC3(CC3)C1)[C@H](CC(C)C)CO2 [Compound 160, (11R)-6-(2,6-Dimethylphenyl)-7-ethyl-11-isobutyl-2,2-dioxo-12-spiro[2.3]hexan-5-yl-9-oxa-2λ^6-thia-3,5,12,19-tetrazatricyclo[12.3.1.14,8]nonadeca-1(17),4(19),5,7,14(18),15-hexaen-13-one]",Ent. B Max Activity,CFTR,+++ (+++ is >60%)
same,EC50,CFTR,< 1 µM
same,"ring closure, yield after HPLC","[1]; from CCc1c(OC[C@@H](CC(C)C)NC2CC3(CC3)C2)nc(NS(=O)(=O)c2cccc(C(=O)O)c2)nc1-c1c(C)cccc1C, 13-membered ring, HATU/TEA, DMF, 31.1 mM, 3.0 h",60%
Cc1cccc(C(C)C)c1-c1nc2nc(c1C)OC[C@@H](CC(C)(C)C)N(Cc1ncc(N3CCOCC3)cn1)C(=O)c1cccc(c1)S(=O)(=O)N2,"ring closure, yield after HPLC","[1]; from Cc1cccc(C(C)C)c1-c1nc(NS(=O)(=O)c2cccc(C(=O)O)c2)nc(OC[C@@H](CC(C)(C)C)NCc2ncc(N3CCOCC3)cn2)c1C, 13-membered ring, CDMT/NMM, DMF, 55.0 mM, 19.0 h",18% and 11%
"(5M,11R)-11-(2,2-dimethylpropyl)-12-({5-[(2,2-dimethylpropyl)(methyl)amino]pyrimidin-2-yl}methyl)-7-methyl-6-[2-methyl-6-(2-methylpropyl)phenyl]-9-oxa-2λ^6-thia-3,5,12,19-tetraazatricyclo[12.3.1.14,8]nonadeca-1(17),4(19),5,7,14(18),15-hexaene-2,2,13-trione","ring closure, yield after HPLC","[1]; 13-membered ring, CDMT/NMM, DMF, 2 steps",20%
Cc1cccc(CC(C)C)c1-c1nc2nc(c1C(F)(F)F)OC[C@@H](CC(C)(C)C)N(Cc1ncc(N3CCOCC3)cn1)C(=O)c1cccc(c1)S(=O)(=O)N2,"ring closure, yield after HPLC","[1]; from Cc1cccc(CC(C)C)c1-c1nc(NS(=O)(=O)c2cccc(C(=O)O)c2)nc(OC[C@@H](CC(C)(C)C)NCc2ncc(N3CCOCC3)cn2)c1C(F)(F)F, 13-membered ring, CDMT/NMM, DMF, 92.0 mM, 4.0 h",37%
"(5P,11R)-11-(2,2-dimethylpropyl)-12-({5-[(2,2-dimethylpropyl)(methyl)amino]pyrimidin-2-yl}methyl)-7-methyl-6-[2-methyl-6-(2-methylpropyl)phenyl]-9-oxa-2λ^6-thia-3,5,12,19-tetraazatricyclo[12.3.1.14,8]nonadeca-1(17),4(19),5,7,14(18),15-hexaene-2,2,13-trione","ring closure, yield after HPLC","[1]; 13-membered ring, CDMT/NMM, DMF, 19.0 mM, 2 steps",11%
"(5P,11R)-6-(2-cyclopropyl-6-methyl-phenyl)-11-(2,2-dimethylpropyl)-7-methyl-12-[(5-morpholinopyrimidin-2-yl)methyl]-2,2-dioxo-9-oxa-2^6-thia-3,5,12,19-tetrazatricyclo[12.3.1.14,8]nonadeca-1(18),4(19),5,7,14,16-hexaen-13-one","ring closure, yield after HPLC","[1]; 13-membered ring, CDMT/NMM, DMF, 122.0 mM",25%

# — US20230374038A1, “MODULATORS OF CYSTIC FIBROSIS TRANSMEMBRANE CONDUCTANCE REGULATOR” (VERTEX PHARMACEUTICALS INCORPORATED, priority 2020, published 2023)
